Test results taken from paper PMC9596378, “Discovery and molecular basis of subtype-selective cyclophilin inhibitors” (Nature Chemical Biology, 2022).
“And” between values parts separate entries of the source, which are not always exact repeats. Identical values can stand only once. Like-named read-outs stand apart in the source and are kept apart here.

Columns and labels:
Assay in all cases: Chymotrypsin coupled prolyl-isomerase assay
CypD = CypD (Homo sapiens, UniProt P30405); conditions: for selectivity for CypD against the remaining six cyclophilins / selectivity for CypD over CypA / selectivity for CypD over CypA and PPIL1 / selectivity for CypD over CypE and CypB: prolyl-isomerase IC50
PPWD1 = target: T1, PPWD1 (Homo sapiens, UniProt Q96BP3); type: biochemical
T1 construct: PPWD1 (UniProtKB Entry Q96BP3: residues 473–646); host or cells: E. coli BL21(DE3)
T1 sequence (Q96BP3 473-646): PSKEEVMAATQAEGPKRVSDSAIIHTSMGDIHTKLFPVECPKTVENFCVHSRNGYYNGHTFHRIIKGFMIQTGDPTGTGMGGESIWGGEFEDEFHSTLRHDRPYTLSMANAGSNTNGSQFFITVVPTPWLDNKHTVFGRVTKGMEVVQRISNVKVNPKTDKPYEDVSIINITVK

PPIL1 = target: T2, PPIL1 (Homo sapiens, UniProt Q9Y3C6); type: biochemical
T2 construct: PPIL1 (UniProtKB Entry Q9Y3C6: residues 1–166); made in house; host or cells: E. coli BL21(DE3)
T2 sequence (Q9Y3C6 1-166): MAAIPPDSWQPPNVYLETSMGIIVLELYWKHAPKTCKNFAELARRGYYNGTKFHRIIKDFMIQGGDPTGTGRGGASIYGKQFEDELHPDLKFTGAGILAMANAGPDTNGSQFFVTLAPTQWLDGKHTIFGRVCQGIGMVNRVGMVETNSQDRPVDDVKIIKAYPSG
Method: Adapting a previously described protocol[51], with an Agilent Bravo Velocity 11 with a 384ST head, 90 µL assay buffer (25 mM HEPES pH 7.3, 100 mM NaCl, 0.01% Triton X-100) containing 5.28 nM cyclophilin was added into a flat, clear-bottom, black 384-well plate pre-chilled in a Corning CoolBox at 2–3 °C. Five microliters of compound pre-dissolved in 5% DMSO/assay buffer was then added to appropriate wells and incubated at 2–3 °C for 5 min. Five microliters of 0.5 mM α-chymotrypsin from bovine pancreas (Type II, lyophilized powder, Millipore-Sigma) in 20% 1 mM HCl/Assay Buffer was then added to each well and incubated at 2–3 °C for 5 min. […] Using the internal liquid handling system of the FLIPR, 1 µL 0.5 mM Suc-AAPF-AMC (Chymotrypsin Substrate II, Millipore-Sigma) dissolved in 0.55 M LiCl/2,2,2-trifluoroethanol was added to each well, which was then mixed for 5 s, followed by immediate fluorescence measurements every 1 s for 330 s using a 360–380 nm excitation LED module and a 400–460 nm emission filter. Final concentrations of the plate include 5 nM cyclophilin, 0.25% DMSO, 25 µM α-chymotrypsin, 5 µM Suc-AAPF-AMC. Raw fluorescence data was analyzed by non-linear regression analysis with Prism v.9 by fitting one-phase association curves to each well. Analyses were halted after the calculated maximum fluorescent value owing to observed fluorescent bleaching during the sustained fluorescent plateau. Rate constants calculated for each well (s^−1) were then normalized to substrate only (no prolyl-isomerase) and enzyme + substrate only controls. IC50 values were calculated as the value at which 50% inhibition was achieved on the non-linear regression fitted curve of each compound.

CypG = target: T3, CypG (Homo sapiens, UniProt Q13427); type: biochemical
T3 construct: PPIG (UniProtKB Entry Q13427: residues 1–179); His6 with thrombin site (pET28a LIC leader) (N); host or cells: E. coli BL21(DE3)
T3 sequence (Q13427 1-179): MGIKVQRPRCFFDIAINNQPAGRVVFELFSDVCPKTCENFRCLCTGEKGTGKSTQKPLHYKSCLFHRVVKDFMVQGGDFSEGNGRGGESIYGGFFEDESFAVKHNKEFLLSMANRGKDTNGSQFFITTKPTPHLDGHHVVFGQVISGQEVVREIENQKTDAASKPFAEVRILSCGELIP
Summary of the method: (§1)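 Chymotrypsin-coupled cis–trans isomerization of Suc-AAPF-AMC (5 µM) catalysed by 5 nM cyclophilin, run cold (2–3 °C) at pH 7.3 with 5 min compound preincubation.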

CypH = target: T4, CypH (Homo sapiens, UniProt O43447); type: biochemical
T4 construct: PPIH (UniProtKB Entry O43447: residues 1–177); His6 with TEV site (2BT vector leader) (N); made in house; host or cells: E. coli BL21(DE3)
Summary of the method: as §1

CypA = target: T5, CypA (Homo sapiens, UniProt P62937); type: biochemical
T5 construct: PPIA (UniProtKB Entry P62937: residues 1–165); made in house; host or cells: E. coli BL21(DE3)
Summary of the method: as §1

[1] = IC50 CypD, Independent replicate 1, mean±SEM of 3 technical replicates
[2] = IC50 CypD, Independent replicate 2
[3] = IC50 CypD, Independent replicate 3
[4] = IC50 CypD, Independent replicate 4
[5] = Independent replicate 1, read-out: IC50 PPWD1
[6] = Independent replicate 2, read-out: IC50 PPWD1
[7] = Independent replicate 3, read-out: IC50 PPWD1
[8] = Independent replicate 4, read-out: IC50 PPWD1
[9] = prolyl-isomerase inhibition, 5 nM cyclophilin, read-out: IC50 PPWD1
[10] = wild-type PPWD1, read-out: Wild-Type Cyclophilin Prolyl Isomerase Inhibition IC50 Values, PPWD1
[11] = Independent replicate 1, read-out: IC50 PPIL1
[12] = Independent replicate 2, read-out: IC50 PPIL1
[13] = Independent replicate 3, read-out: IC50 PPIL1
[14] = Independent replicate 4, read-out: IC50 PPIL1
[15] = prolyl-isomerase inhibition, 5 nM cyclophilin, read-out: IC50 PPIL1
[16] = wild-type PPIL1, read-out: Wild-Type Cyclophilin Prolyl Isomerase Inhibition IC50 Values, PPIL1
[17] = Independent replicate 1, read-out: IC50 CypG
[18] = Independent replicate 2, read-out: IC50 CypG
[19] = Independent replicate 3, read-out: IC50 CypG
[20] = Independent replicate 4, read-out: IC50 CypG
[21] = prolyl-isomerase inhibition, 5 nM cyclophilin, read-out: IC50 CypG
[22] = wild-type CypG, read-out: Wild-Type Cyclophilin Prolyl Isomerase Inhibition IC50 Values, CypG
[23] = Independent replicate 1, read-out: IC50 CypH
[24] = Independent replicate 2, read-out: IC50 CypH
[25] = Independent replicate 3, read-out: IC50 CypH
[26] = Independent replicate 4, read-out: IC50 CypH
[27] = prolyl-isomerase inhibition, 5 nM cyclophilin, read-out: IC50 CypH
[28] = wild-type CypH, read-out: Wild-Type Cyclophilin Prolyl Isomerase Inhibition IC50 Values, CypH
[29] = Independent replicate 2, read-out: IC50 CypA
[30] = Independent replicate 3, read-out: IC50 CypA
[31] = Independent replicate 4, read-out: IC50 CypA
[32] = prolyl-isomerase inhibition, 5 nM cyclophilin, read-out: IC50 CypA

Chain of CypD (P30405 45-207): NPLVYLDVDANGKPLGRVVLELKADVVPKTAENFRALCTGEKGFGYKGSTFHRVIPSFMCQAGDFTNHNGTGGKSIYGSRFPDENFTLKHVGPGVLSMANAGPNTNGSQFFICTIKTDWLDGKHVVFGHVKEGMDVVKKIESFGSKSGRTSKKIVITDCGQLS
T4 sequence (O43447 whole entry, the tested form may be a part): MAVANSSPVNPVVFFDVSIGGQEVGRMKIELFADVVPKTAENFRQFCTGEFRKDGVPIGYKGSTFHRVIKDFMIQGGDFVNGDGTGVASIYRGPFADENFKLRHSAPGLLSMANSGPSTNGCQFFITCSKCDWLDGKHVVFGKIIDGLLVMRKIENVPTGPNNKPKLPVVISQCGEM
T5 sequence (P62937 whole entry, the tested form may be a part): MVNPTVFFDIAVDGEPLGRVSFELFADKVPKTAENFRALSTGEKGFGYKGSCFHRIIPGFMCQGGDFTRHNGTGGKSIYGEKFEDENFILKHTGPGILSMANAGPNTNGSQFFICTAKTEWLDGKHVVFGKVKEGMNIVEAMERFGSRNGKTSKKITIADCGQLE

NCCOCCNC(=O)[C@@H]1CCNC(=O)/C=C/C(=O)N2CCC[C@](Cc3ccccc3)(C2)C(=O)N[C@@H](Cc2ccc(-c3ccc(CC(C(=O)O)C(=O)O)cc3)cc2)C(=O)NCc2ccccc2CC(=O)N1 [Compound B52]
IC50 (CypD): 0.01 ± 0.004 µM | IC50 (CypD; [1]): 0.01 ± 0.002 µM | IC50 (CypD; [2]): 0.011 ± 0.004 µM | IC50 (CypD; [3]): 0.011 ± 0.005 µM | IC50 (CypD; [4]): 0.01 ± 0.005 µM | IC50 (CypD; IC50 CypD, prolyl-isomerase inhibition): 0.01 µM | IC50 (CypD; Wild-Type Cyclophilin Prolyl Isomerase Inhibition IC50 Values, CypD, wild-type CypD): 0.01 µM | selectivity for CypD against the remaining six cyclophilins (CypD): > 900 fold | selectivity for CypD over CypA (CypD): > 100 fold and 100 fold | selectivity for CypD over CypA and PPIL1 (CypD): 60- to 900 fold | selectivity for CypD over CypE and CypB (CypD): 15- to 30 fold | IC50 (CypD; read-out: IC50 CypD, prolyl-isomerase inhibition, 5 nM cyclophilin, Suc-AAPF-AMC, mean±s.e.m. of 3 technical replicates (B52, B53, C3A wild-type: mean±s.d. of 4 independent replicates)): 0.01 µM | IC50 (PPWD1; [5]): > 100 µM | IC50 (PPWD1; [6]): > 100 µM | IC50 (PPWD1; [7]): > 100 µM | IC50 (PPWD1; [8]): > 100 µM | IC50 (PPWD1; [9]): > 100 µM | IC50 (PPWD1; prolyl-isomerase inhibition, read-out: IC50 PPWD1): > 100 µM | IC50 (PPWD1; [10]): > 100 µM | IC50 (PPIL1; [11]): 5 ± 2 µM | IC50 (PPIL1; [12]): 9 ± 3 µM | IC50 (PPIL1; [13]): 6 ± 2 µM | IC50 (PPIL1; [14]): 5 ± 2 µM | IC50 (PPIL1; [15]): 6 ± 2 µM | IC50 (PPIL1; prolyl-isomerase inhibition, read-out: IC50 PPIL1): 6 µM | IC50 (PPIL1; [16]): 6 µM | IC50 (CypG; [17]): ~80 µM | IC50 (CypG; [18]): > 100 µM | IC50 (CypG; [19]): ~80 µM | IC50 (CypG; [20]): > 100 µM | IC50 (CypG; [21]): > 100 µM | IC50 (CypG; prolyl-isomerase inhibition, read-out: IC50 CypG): > 100 µM | IC50 (CypG; [22]): > 100 µM | IC50 (CypH; [23]): > 100 µM | IC50 (CypH; [24]): > 100 µM | IC50 (CypH; [25]): > 100 µM | IC50 (CypH; [26]): > 100 µM | IC50 (CypH; [27]): > 100 µM | IC50 (CypH; prolyl-isomerase inhibition, read-out: IC50 CypH): > 100 µM | IC50 (CypH; [28]): > 100 µM | IC50 (CypA; [29]): 0.9 ± 0.1 µM | IC50 (CypA; [30]): 0.9 ± 0.3 µM | IC50 (CypA; [31]): 1.4 ± 0.5 µM | IC50 (CypA; [32]): 1.1 µM

C[N+]1=C(C=CC=CC=C2N(CCCCCC(=O)NCCNC(=O)C3CCNC(=O)C=CC(=O)N4CCCC(Cc5ccccc5)(C4)C(=O)NC(Cc4ccc(-c5ccc(C(CC(=O)O)CC(=O)O)cc5)cc4)C(=O)NCc4ccccc4CC(=O)N3)c3ccccc3C2(C)C)C(C)(C)c2ccccc21 (stereo not shown) [Compound B53-Cy5]
IC50 (CypD; read-out: Wild-Type Cyclophilin Prolyl Isomerase Inhibition IC50 Values, CypD, wild-type CypD): 0.029 µM | IC50 (PPWD1; [10]): > 2 µM | IC50 (PPIL1; [16]): > 2 µM | IC50 (CypG; [22]): > 2 µM | IC50 (CypH; [28]): > 2 µM | IC50 (CypA; wild-type CypA, read-out: Wild-Type Cyclophilin Prolyl Isomerase Inhibition IC50 Values, CypA): 0.3 µM

NCCOCCNC(=O)[C@@H]1CCNC(=O)/C=C/C(=O)N2CCC[C@](Cc3ccccc3)(C2)C(=O)N[C@@H](Cc2ccc(-c3ccc(C(CC(=O)O)CC(=O)O)cc3)cc2)C(=O)NCc2ccccc2CC(=O)N1 [Compound B53]
IC50 (CypD): 0.057 µM | IC50 (CypD; [1]): 0.04 ± 0.01 µM | IC50 (CypD; [2]): 0.05 ± 0.02 µM | IC50 (CypD; [3]): 0.06 ± 0.02 µM | IC50 (CypD; [4]): 0.06 ± 0.03 µM | selectivity for CypD against the remaining six cyclophilins (CypD): > 900 fold | selectivity for CypD over CypA (CypD): > 100 fold and 100 fold | selectivity for CypD over CypA and PPIL1 (CypD): 60- to 900 fold | selectivity for CypD over CypE and CypB (CypD): 15- to 30 fold | IC50 (PPWD1; [5]): > 50 µM | IC50 (PPWD1; [6]): > 50 µM | IC50 (PPWD1; [7]): > 50 µM | IC50 (PPWD1; [8]): > 50 µM | IC50 (PPWD1; [9]): > 50 µM | IC50 (PPWD1; [10]): > 50 µM | IC50 (PPIL1; [11]): ~30 µM | IC50 (PPIL1; [12]): > 50 µM | IC50 (PPIL1; [13]): > 50 µM | IC50 (PPIL1; [14]): > 50 µM | IC50 (PPIL1; [15]): > 50 µM | IC50 (PPIL1; [16]): > 50 µM | IC50 (CypG; [17]): ~50 µM | IC50 (CypG; [18]): > 50 µM | IC50 (CypG; [19]): > 50 µM | IC50 (CypG; [20]): > 50 µM | IC50 (CypG; [21]): > 50 µM | IC50 (CypG; [22]): > 50 µM | IC50 (CypH; [23]): > 50 µM | IC50 (CypH; [24]): > 50 µM | IC50 (CypH; [25]): > 50 µM | IC50 (CypH; [26]): > 50 µM | IC50 (CypH; [27]): > 50 µM | IC50 (CypH; [28]): > 50 µM | IC50 (CypA; Independent replicate 1, read-out: IC50 CypA): 3 ± 2 µM | IC50 (CypA; [29]): 3 ± 1 µM | IC50 (CypA; [30]): 4 ± 2 µM | IC50 (CypA; [31]): 4 ± 1 µM | IC50 (CypA; [32]): 3.4 µM
